Assays:
JAK1 = JAK1 (Homo sapiens (Human), UniProt P23458); assay: JAK1 Kinase Assay Protocol; type: biochemical; details: GST-JAK1; ATP 100 μM; Caliper LabChip; read-out: LLE_JAK1 (IC50)
Method: JAK1 Kinase Assay Protocol
The assay reactions were performed in U-bottom 384-well plates. The final assay volume was 30 μl prepared from 15 μl additions of enzyme and substrates (fluoresceinated peptide and ATP) and test compounds in assay buffer (20 mM HEPES pH 7.4, 10 mM MgCl2, 25 mM beta-glycerol phosphate, 0.015% Brij35 and 4 mM DTT). The reaction was initiated by the combination of GST-JAK1 enzyme with substrates and test compounds. The reactions were incubated at room temperature for 3 hours and terminated by adding 60 μl of 35 mM EDTA to each sample. […] The final concentration of reagents in the assays was: ATP, 100 μM; fluoresceinated peptide, 1.5 μM; GST-JAK1, 12.5 nM; and DMSO, 1.6%. […] Compounds were dissolved at 10 mM in dimethylsulfoxide (DMSO) and evaluated at eleven concentrations. IC50 values were derived by non-linear regression analysis.

JAK3 = JAK3 (Homo sapiens (Human), UniProt P52333); assay: JAK3 Kinase Assay (Caliper / Filter protocols); type: biochemical; details: JAK3 kinase inhibition; ATP 8 μM; read-out: LLE_JAK3_FB (IC50)
Chain of JAK3 (P52333 whole entry): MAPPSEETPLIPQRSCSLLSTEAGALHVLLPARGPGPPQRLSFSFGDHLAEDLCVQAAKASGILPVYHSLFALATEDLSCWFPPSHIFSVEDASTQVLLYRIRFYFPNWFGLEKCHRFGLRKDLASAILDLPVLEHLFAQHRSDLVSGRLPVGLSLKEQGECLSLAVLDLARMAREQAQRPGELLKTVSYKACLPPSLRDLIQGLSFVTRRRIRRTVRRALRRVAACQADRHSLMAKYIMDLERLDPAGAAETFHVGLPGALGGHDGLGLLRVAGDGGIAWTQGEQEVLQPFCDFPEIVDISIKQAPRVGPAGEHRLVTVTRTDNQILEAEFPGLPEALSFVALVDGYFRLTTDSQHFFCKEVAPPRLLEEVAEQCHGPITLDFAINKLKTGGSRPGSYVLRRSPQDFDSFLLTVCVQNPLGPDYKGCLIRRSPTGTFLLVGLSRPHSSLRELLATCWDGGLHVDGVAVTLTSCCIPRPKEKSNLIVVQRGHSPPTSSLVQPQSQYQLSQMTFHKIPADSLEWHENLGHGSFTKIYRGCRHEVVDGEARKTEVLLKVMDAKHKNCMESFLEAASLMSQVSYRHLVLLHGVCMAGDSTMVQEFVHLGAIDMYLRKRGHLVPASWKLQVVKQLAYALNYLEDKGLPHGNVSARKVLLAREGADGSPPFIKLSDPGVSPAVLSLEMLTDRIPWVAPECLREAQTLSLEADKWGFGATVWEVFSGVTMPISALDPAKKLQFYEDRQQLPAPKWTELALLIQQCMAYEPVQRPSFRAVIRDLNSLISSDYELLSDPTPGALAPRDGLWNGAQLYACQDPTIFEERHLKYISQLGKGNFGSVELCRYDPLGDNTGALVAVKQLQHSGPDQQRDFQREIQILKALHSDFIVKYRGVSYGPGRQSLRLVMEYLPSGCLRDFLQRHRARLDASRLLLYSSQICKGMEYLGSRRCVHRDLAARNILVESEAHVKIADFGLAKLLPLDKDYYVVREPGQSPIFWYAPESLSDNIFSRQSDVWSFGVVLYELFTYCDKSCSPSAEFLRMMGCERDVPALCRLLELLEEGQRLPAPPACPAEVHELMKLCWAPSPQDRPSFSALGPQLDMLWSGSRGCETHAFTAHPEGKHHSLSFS
Method: JAK3 Kinase Assay Protocol (Caliper)
The assay reactions were performed in U-bottom 384-well plates. […] The reaction was initiated by the combination of GST-JAK3 enzyme with substrates and test compounds. The reactions were incubated at room temperature for 3 hours and terminated by adding 60 μl of 35 mM EDTA to each sample. […] Compounds were dissolved at 10 mM in dimethylsulfoxide (DMSO) and evaluated at eleven concentrations. IC50 values were derived by non-linear regression analysis.
JAK3 Kinase Assay Protocol (Filter)
Kinase reactions consisted of 5 ng of JAK3 enzyme, 30 uM CSKtide substrate, 0.2 μCi ^33P γ-ATP, 8 μM ATP in 30 μl kinase buffer (50 mM Hepes, pH 8.0, 10 mM MgCl2, 1 mM EGTA, 2 mM DTT). Reactions were incubated for 30 minutes at room temperature and stopped by the addition of cold trichloroacetic acid (TCA) to a final concentration of 15%. TCA precipitates were collected onto 384 well phosphocellulose filters (Millipore) using a Platemate to transfer the reaction mixture, washed on an EMBLA plate washer and the filters were quantitated using a TopCount 384-well liquid scintillation counter. […] Compounds were dissolved at 10 mM in dimethylsulfoxide (DMSO) and evaluated at six concentrations, each in triplicate. The final concentration of DMSO in the assay equaled 2%. IC50 values were derived by non-linear regression analysis.

Chain of JAK1 (P23458 whole entry): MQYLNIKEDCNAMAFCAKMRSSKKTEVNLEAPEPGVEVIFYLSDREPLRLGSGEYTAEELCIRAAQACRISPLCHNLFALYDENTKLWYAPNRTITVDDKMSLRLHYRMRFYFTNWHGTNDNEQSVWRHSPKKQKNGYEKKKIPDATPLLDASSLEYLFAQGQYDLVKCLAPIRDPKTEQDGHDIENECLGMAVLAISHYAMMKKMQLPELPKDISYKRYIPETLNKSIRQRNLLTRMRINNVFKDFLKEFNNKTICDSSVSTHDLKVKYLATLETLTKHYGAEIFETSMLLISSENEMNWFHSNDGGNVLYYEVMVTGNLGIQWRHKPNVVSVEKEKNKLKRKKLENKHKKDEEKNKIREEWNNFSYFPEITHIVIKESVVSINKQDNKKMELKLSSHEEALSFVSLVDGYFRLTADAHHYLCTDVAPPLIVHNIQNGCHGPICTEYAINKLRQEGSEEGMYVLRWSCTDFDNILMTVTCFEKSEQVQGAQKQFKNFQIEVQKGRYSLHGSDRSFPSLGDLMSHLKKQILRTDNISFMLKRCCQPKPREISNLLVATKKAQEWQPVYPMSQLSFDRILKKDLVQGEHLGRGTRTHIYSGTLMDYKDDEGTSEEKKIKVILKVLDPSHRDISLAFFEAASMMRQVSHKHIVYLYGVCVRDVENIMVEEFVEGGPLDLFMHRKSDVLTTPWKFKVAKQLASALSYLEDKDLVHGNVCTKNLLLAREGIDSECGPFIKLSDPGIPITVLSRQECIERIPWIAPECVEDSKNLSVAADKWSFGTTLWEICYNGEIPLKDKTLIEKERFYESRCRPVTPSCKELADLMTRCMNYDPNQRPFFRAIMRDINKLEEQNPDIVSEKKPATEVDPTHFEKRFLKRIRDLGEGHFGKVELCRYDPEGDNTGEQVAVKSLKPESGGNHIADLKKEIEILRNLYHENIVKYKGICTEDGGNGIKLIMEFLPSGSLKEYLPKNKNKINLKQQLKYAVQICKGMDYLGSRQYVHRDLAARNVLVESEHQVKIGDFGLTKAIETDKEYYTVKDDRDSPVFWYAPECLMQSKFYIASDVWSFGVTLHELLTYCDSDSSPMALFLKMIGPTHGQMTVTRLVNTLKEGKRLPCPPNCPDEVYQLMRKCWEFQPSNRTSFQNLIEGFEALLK

C[C@]1(F)CCC[C@H]1Nc1c(C(N)=O)cnn2cc(N3CCOCC3=O)cc12 (racemic) [Example 318]
IC50 (JAK1): 13.4 nM | IC50 (JAK3): 7.1 nM

CC1(C#N)CCCC1Nc1c(C(N)=O)cnn2cc(-c3ccccc3)cc12 (stereo not shown) [Example 123]
IC50 (JAK1): 1 nM | IC50 (JAK3): 0.2 nM

CCS(=O)(=O)Nc1cc2c(N[C@@H]3CC[C@@](C)(O)C3(C)C)c(C(N)=O)cnn2c1 (racemic) [Example 25]
IC50 (JAK1): 83.9 nM | IC50 (JAK3): 8.1 nM

CC1(C)[C@@H](Nc2c(C(N)=O)cnn3cc(-c4ccc(C#N)cc4)cc23)CC[C@@]1(C)N [Example 112]
IC50 (JAK1): 12.7 nM | IC50 (JAK3): 9.4 nM

CC1(C)[C@H](Nc2c(C(N)=O)cnn3cc(-c4ccccc4)cc23)CC[C@]1(C)C(N)=O [Example 337, 4-((1R,3S)-3-carbamoyl-2,2,3-trimethylcyclopentylamino)-6-phenylpyrrolo[1,2-b]pyridazine-3-carboxamide]
IC50 (JAK1): 1.4 nM | IC50 (JAK3): 0.4 nM

Cn1nccc1-c1cc2c(N[C@@H]3CC[C@](C)(O)C3(C)C)c(C(N)=O)cnn2c1 (racemic) [Example 148]
IC50 (JAK1): 46.4 nM | IC50 (JAK3): 25.2 nM

Cn1nccc1-c1cc2c(N[C@H]3CC[C@@](C)(O)CC3)c(C(N)=O)cnn2c1 [Example 162, 4-((4-hydroxy-4-methylcyclohexyl)amino)-6-(1-methyl-1H-pyrazol-5-yl)pyrrolo[1,2-b]pyridazine-3-carboxamide]
IC50 (JAK3): 62.7 nM

CC1(C)[C@H](Nc2c(C(N)=O)cnn3cc(NS(=O)(=O)c4ccc(Cl)cc4)cc23)CC[C@@]1(C)O (racemic) [Example 23]
IC50 (JAK1): 258 nM | IC50 (JAK3): 23.4 nM

C[C@]1(O)CC[C@@H](Nc2c(C(N)=O)cnn3cc(-c4cncnc4N)cc23)CC1 [Example 316, 6-(4-amino-5-pyrimidinyl)-4-((cis-4-hydroxy-4-methylcyclohexyl)amino)pyrrolo[1,2-b]pyridazine-3-carboxamide]
IC50 (JAK1): 37.3 nM | IC50 (JAK3): 11 nM

CC1(C)CCC[C@H]1Nc1c(C(N)=O)cnn2cc(-c3ccccc3)cc12 [Example 304, 4-(((1R)-2,2-dimethylcyclopentyl)amino)-6-phenylpyrrolo[1,2-b] pyridazine-3-carboxamide]
IC50 (JAK1): 2.9 nM | IC50 (JAK3): 0.5 nM

C[C@]1(O)CC[C@@H](Nc2c(C(N)=O)cnn3cc(-c4ccccc4C(N)=O)cc23)CC1 [Example 166, 6-(2-carbamoylphenyl)-4-((cis-4-hydroxy-4-methylcyclohexyl)amino)pyrrolo[1,2-b]pyridazine-3-carboxamide]
IC50 (JAK1): 72.4 nM | IC50 (JAK3): 33.6 nM

CC1(C)[C@H](Nc2c(C(N)=O)cnn3cc(-c4ccccc4C(N)=O)cc23)CC[C@]1(C)N [Example 255, 4-(((1R,3S)-3-amino-2,2,3-trimethylcyclopentyl)amino)-6-(2-carbamoylphenyl)pyrrolo [1,2-b]pyridazine-3-carboxamide]
IC50 (JAK1): 2.7 nM | IC50 (JAK3): 6 nM

CC(=O)Nc1ccccc1-c1cc2c(N[C@@H]3CC[C@](C)(N)C3(C)C)c(C(N)=O)cnn2c1 [Example 257, 6-(2-acetamidophenyl)-4-(((1R,3S)-3-amino-2,2,3-trimethylcyclopentyl)amino)pyrrolo[1,2-b]pyridazine-3-carboxamide]
IC50 (JAK1): 30 nM | IC50 (JAK3): 36.9 nM

COc1cncc(-c2cc3c(N[C@@H]4CC[C@](C)(N)C4(C)C)c(C(N)=O)cnn3c2)c1 [Example 286, 4-(((1R,3S)-3-amino-2,2,3-trimethylcyclopentyl)amino)-6-(5-methoxy-3-pyridinyl)pyrrolo[1,2-b]pyridazine-3-carboxamide]
IC50 (JAK1): 4.1 nM | IC50 (JAK3): 5.5 nM

COc1ccc(-c2cc3c(N[C@@H]4CC[C@](C)(NS(C)(=O)=O)C4(C)C)c(C(N)=O)cnn3c2)cn1 [Example 336, 6-(6-methoxy-3-pyridinyl)-4-(((1R,3S)-2,2,3-trimethyl-3-((methylsulfonyl)amino)cyclopentyl)amino)pyrrolo[1,2-b]pyridazine-3-carboxamide]
IC50 (JAK1): 4.3 nM | IC50 (JAK3): 1.7 nM

CC1(C)[C@H](Nc2c(C(N)=O)cnn3cc(-c4ccccc4)cc23)CC[C@]1(C)NS(C)(=O)=O [Example 129]
IC50 (JAK1): 2.6 nM | IC50 (JAK3): 1 nM

COc1ccccc1-c1cc2c(NC3C4CC5CC3CC(O)(C5)C4)c(C(N)=O)cnn2c1 (stereo not shown) [Example 178, 4-((5-hydroxyadamantan-2-yl)amino)-6-(2-methoxyphenyl)pyrrolo [1,2-b]pyridazine-3-carboxamide]
IC50 (JAK3): 1 nM

C[C@]1(F)CCC[C@H]1Nc1c(C(N)=O)cnn2cc(N3CCCC3=O)cc12 (racemic) [Example 159]
IC50 (JAK1): 3.8 nM | IC50 (JAK3): 0.5 nM

C[C@]1(O)CC[C@@H](Nc2c(C(N)=O)cnn3cc(-c4cncnc4)cc23)CC1 [Example 168, 4-((cis-4-hydroxy-4-methylcyclohexyl)amino)-6-(5-pyrimidinyl)pyrrolo [1,2-b]pyridazine-3-carboxamide]
IC50 (JAK1): 105 nM | IC50 (JAK3): 17.1 nM

COc1cccc(-c2cc3c(NC4C5CC6CC4CC(O)(C6)C5)c(C(N)=O)cnn3c2)c1 (stereo not shown) [Example 176, 4-((5-hydroxyadamantan-2-yl)amino)-6-(3-methoxyphenyl)pyrrolo [1,2-b]pyridazine-3-carboxamide]
IC50 (JAK3): 8.9 nM

CC1(C)[C@H](Nc2c(C(N)=O)cnn3cc(NS(=O)(=O)c4ccccc4)cc23)CC[C@@]1(C)O (racemic) [Example 22]
IC50 (JAK1): 239 nM | IC50 (JAK3): 22.1 nM

CC1(C)[C@H](Nc2c(C(N)=O)cnn3cc(-c4ccc(N5CCCC5)nc4)cc23)CC[C@]1(C)N [Example 213, 4-(((1R,3S)-3-amino-2,2,3-trimethylcyclopentyl)amino)-6-(6-(1-pyrrolidinyl)-3-pyridinyl)pyrrolo[1,2-b]pyridazine-3-carboxamide]
IC50 (JAK1): 17.3 nM | IC50 (JAK3): 9.5 nM

CC1(C)[C@H](Nc2c(C(N)=O)cnn3cc(N4CCC4=O)cc23)CC[C@]1(C)N [Example 332]
IC50 (JAK1): 75.7 nM | IC50 (JAK3): 8.8 nM

NC(=O)c1cnn2cc(-c3ccc4scnc4c3)cc2c1NC12CC3CC(O)(CC(O)(C3)C1)C2 [Example 299, 6-(1,3-benzothiazol-5-yl)-4-((3,5-dihydroxyadamantan-1-yl)amino)pyrrolo [1,2-b]pyridazine-3-carboxamide]
IC50 (JAK1): 4.3 nM | IC50 (JAK3): 7.3 nM

CC1(C)[C@H](Nc2c(C(N)=O)cnn3cc(N4CCOCC4=O)cc23)CC[C@]1(C)N [Example 312, 4-(((1R,3S)-3-amino-2,2,3-trimethylcyclopentyl)amino)-6-(3-oxo-4-morpholinyl)pyrrolo[1,2-b]pyridazine-3-carboxamide]
IC50 (JAK1): 69.4 nM | IC50 (JAK3): 44.2 nM

COc1ccc(S(=O)(=O)Nc2cc3c(N[C@@H]4CC[C@@](C)(O)C4(C)C)c(C(N)=O)cnn3c2)cc1 (racemic) [Example 24]
IC50 (JAK3): 34.2 nM

COc1ccc(-c2cc3c(N[C@@H]4CC[C@](C)(C(N)=O)C4(C)C)c(C(N)=O)cnn3c2)cn1 [Example 338, 4-((1R,3S)-3-carbamoyl-2,2,3-trimethylcyclopentylamino)-6-(6-methoxypyridin-3-yl)pyrrolo[1,2-b]pyridazine-3-carboxamide]
IC50 (JAK1): 1.2 nM | IC50 (JAK3): 0.3 nM

Cc1ccc(-c2cc3c(NC4C5CC6CC4CC(O)(C6)C5)c(C(N)=O)cnn3c2)cc1 (stereo not shown) [Example 187, 4-((5-hydroxyadamantan-2-yl)amino)-6-(4-methylphenyl)pyrrolo [1,2-b]pyridazine-3-carboxamide]
IC50 (JAK1): 63.4 nM

NC(=O)c1cnn2cc(-c3ccc(F)cc3)cc2c1NC12CC3CC(O)(CC(O)(C3)C1)C2 [Example 298, 4-((3,5-dihydroxyadamantan-1-yl)amino)-6-(4-fluorophenyl)pyrrolo [1,2-b]pyridazine-3-carboxamide]
IC50 (JAK1): 2.1 nM | IC50 (JAK3): 4.7 nM

C[C@]1(F)CCC[C@H]1Nc1c(C(N)=O)cnn2cc(N3CCOC3=O)cc12 [Example 317]
IC50 (JAK1): 13.6 nM | IC50 (JAK3): 6.8 nM

Cn1nccc1-c1cc2c(NC3C4CC5CC3CC(O)(C5)C4)c(C(N)=O)cnn2c1 (stereo not shown) [Example 185, 4-((5-hydroxyadamantan-2-yl)amino)-6-(1-methyl-1H-pyrazol-5-yl) pyrrolo[1,2-b] pyridazine-3-carboxamide]
IC50 (JAK3): 6.2 nM

C[C@]1(F)CCC[C@H]1Nc1c(C(N)=O)cnn2cc(-c3cncc4ccccc34)cc12 (racemic) [Example 68]
IC50 (JAK3): 46.4 nM

Cc1cccc(C)c1-c1cc2c(NC3C4CC5CC3CC(O)(C5)C4)c(C(N)=O)cnn2c1 (stereo not shown) [Example 177, 6-(2,6-dimethylphenyl)-4-((5-hydroxyadamantan-2-yl)amino)pyrrolo [1,2-b]pyridazine-3-carboxamide]
IC50 (JAK3): 524 nM
